In patent US20250163057A1, “DCN-1 MODULATING COMPOUNDS AND METHODS OF USE THEREOF” (Cellarity, Inc., priority 2023, published 2025):
Read-outs that look alike come from different tables or passages of the source.

What was measured:
[1] = target: DCN1 (DCUND1) protein PONY domain (Homo sapiens (Human), UniProt Q96GG9); experiment: TR-FRET assay, DCN1 binding with FAM-labeled probe
In short: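 Tb-DCN1 PONY domain (E. coli, biotin/streptavidin-Tb); FAM-labelled non-covalent inhibitor probe; TritonX buffer, 200 mM NaCl; 5 nM DCN1 + 20 nM probe or 0.31 nM DCN1 + 900 nM total probe; 0.1% DMSO; TR-FRET read 1, 5, 24 hrs.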

[2] = tested on: fetal hemoglobin gene HBG1; experiment: HBG1 Nanostring Assay in CD34+ HSPC erythroid differentiation culture; type: cell-based, human; conditions: for EC50: Homo sapiens, 240 h, HBG1 induction, Day10 of erythroid differentiation; for Nanostring Ymax obs (%): relative to a control compound (C1)
In short: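 CD34+ HSPCs were dosed from day −2 (0.1% DMSO) through two-phase erythroid differentiation (EPO, transferrin, SCF, IL-3, insulin; IL-3 removed from day 7) at 37° C, 5% CO2. Day-10 lysates of 100K cells were hybridized at 67° C for 22 h for nCounter counting, normalized to ERCC and housekeeping controls. EC50 and Ymax were derived, with Ymax relative to a control compound.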

[3] = target: DCN1 protein (Homo sapiens (Human), UniProt Q96GG9); experiment: Intact Protein MS Analysis with the RapidFire-TOF System (covalent adduct formation); type: binding; conditions: MS Emax; 400 nM DCN1, 3 hours at room temperature
Chain of DCN1 protein (Q96GG9 whole entry): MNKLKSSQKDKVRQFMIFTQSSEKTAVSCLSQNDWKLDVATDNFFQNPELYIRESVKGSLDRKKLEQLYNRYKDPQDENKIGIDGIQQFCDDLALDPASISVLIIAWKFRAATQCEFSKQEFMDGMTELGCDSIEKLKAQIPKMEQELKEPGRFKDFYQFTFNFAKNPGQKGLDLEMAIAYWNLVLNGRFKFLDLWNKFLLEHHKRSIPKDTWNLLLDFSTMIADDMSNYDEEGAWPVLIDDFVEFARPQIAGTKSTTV
In short: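 Tag-cleaved human DCN1 (400 nM) expressed in E. coli, in 25 mM Tris-HCl, 200 mM NaCl, 1 mM DTT, was incubated with 11 compound concentrations for 3 h at room temperature and quenched with 0.2% formic acid. Intact-protein Q-TOF MS with deconvolution detected the compound adduct mass.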

[4] = tested on: Cullin-3 (CUL3) neddylation; experiment: AlphaLISA assay for Cullin-3 (CUL3) neddylation in TF 1 cells; type: cell-based; conditions: Homo sapiens, TF-1, 3 h, 3 hours treatment
In short: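 TF 1 cells in unsupplemented IMDM treated with compound concentrations for 3 h, then lysed. CUL3 neddylation detected by AlphaLISA (biotinylated anti-NEDD8, anti-CUL3 acceptor beads overnight, streptavidin donor beads 1 h); normalized to vehicle (0%) and 1 μM DI-1548 (100%), IC50 from Hill fits.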

[5] = 24 hr after treatment with compound, read-out: TR FRET IC50 24 hr
[6] = read-out: TR FRET IC50 1 hr, 1 hr after treatment with compound
[7] = TR FRET IC50 1 hr (nM), 1 hr after treatment with compound

Chain of DCN1 (DCUND1) protein PONY domain (Q96GG9 60-248): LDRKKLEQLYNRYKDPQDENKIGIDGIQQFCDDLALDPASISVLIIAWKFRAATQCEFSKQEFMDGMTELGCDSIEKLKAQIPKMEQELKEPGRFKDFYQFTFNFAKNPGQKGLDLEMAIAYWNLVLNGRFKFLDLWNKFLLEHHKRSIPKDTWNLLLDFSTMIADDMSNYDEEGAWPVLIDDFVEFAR

| Compound | IC50 [1, 5] [nM] | IC50 [1, 6] [nM] | EC50 [2] [nM] | Nanostring Ymax obs (%) [2] | % Adduct Formation [3] | IC50 [4] [nM] | IC50 [1, 7] [nM] |
| --- | --- | --- | --- | --- | --- | --- | --- |
| C/C=C(\CN1CCOCC1)C(=O)NCc1nn(-c2ccccc2)c2c1[C@@H](c1ccc(F)cc1)[C@H](NC(=O)c1cccc(C(F)(F)F)c1)C(=O)N2CC (racemic) [Compound I-27] | ≤ 200 | ≤ 200 | 100 to 1000 | ++ (Nanostring Ymax greater than 50.0 and less than or equal to 100.0) | + (MS Emax % adduct formation greater than or equal to 0.0 and less than or equal to 30.0) | ≤ 100 |  |
| C=CC(=O)N(C)Cc1nn(-c2ccccc2)c2c1[C@H](c1ccc(F)cc1)[C@H](NC(=O)c1cccc(C(F)(F)F)c1)C(=O)N2CC (racemic) [Compound I-29] | 1000 to 3000 |  | > 1000 | + (Nanostring Ymax greater than or equal to 0.0 and less than or equal to 50.0) | + (MS Emax % adduct formation greater than or equal to 0.0 and less than or equal to 30.0) | > 1000 | 1000 to 3000 |
| C=C(CN1CCC(F)(F)C1)C(=O)NCc1nn(-c2ccccc2)c2c1[C@H](c1ccc(F)cc1)[C@@H](NC(=O)c1cccc(C(F)(F)F)c1)C(=O)N2CC (racemic) [Compound I-32] | ≤ 200 | ≤ 200 | 100 to 1000 | ++ (Nanostring Ymax greater than 50.0 and less than or equal to 100.0) | + (MS Emax % adduct formation greater than or equal to 0.0 and less than or equal to 30.0) | ≤ 100 |  |
| C=C(C(=O)OCC)c1nn(-c2ccccc2)c2c1[C@H](c1ccc(F)cc1)[C@H](NC(=O)c1cccc(C(F)(F)F)c1)C(=O)N2CC (racemic) [Compound I-35, rac-ethyl 2-((4R,5R)-7-ethyl-4-(4-fluorophenyl)-6-oxo-1-phenyl-5-(3-(trifluoromethyl)benzamido)-4,5,6,7-tetrahydro-1H-pyrazolo[3,4-b]pyridine-3-yl)acrylate] | ≤ 200 |  | 100 to 1000 | + (Nanostring Ymax greater than or equal to 0.0 and less than or equal to 50.0) | + (MS Emax % adduct formation greater than or equal to 0.0 and less than or equal to 30.0) | 100 to 1000 | > 3000 |
| CCN1C(=O)[C@@H](NC(=O)c2cccc(C(F)(F)F)c2)[C@@H](c2ccc(F)cc2)c2c(CNC(=O)C3(C#N)CC3)nn(-c3ccccc3)c21 (racemic) [Compound I-37, rac-N-((4R,5R)-3-((1-cyanocyclopropane-1-carboxamido)methyl)-7-ethyl-4-(4-fluorophenyl)-6-oxo-1-phenyl-4,5,6,7-tetrahydro-1H-pyrazolo[3,4-b]pyridine-5-yl)-3-(trifluoromethyl)benzamide] | 1000 to 3000 |  | > 1000 | + (Nanostring Ymax greater than or equal to 0.0 and less than or equal to 50.0) | + (MS Emax % adduct formation greater than or equal to 0.0 and less than or equal to 30.0) | 100 to 1000 | 1000 to 3000 |
| CC#CC(=O)Nc1nn(-c2ccccc2)c2c1[C@H](c1ccc(F)cc1)[C@H](NC(=O)c1cccc(C(F)(F)F)c1)C(=O)N2CC (racemic) [Compound I-51] | 200 to 1000 |  | 100 to 1000 | +++ (Nanostring Ymax greater than 100.0) | + (MS Emax % adduct formation greater than or equal to 0.0 and less than or equal to 30.0) | 100 to 1000 | 200 to 1000 |
| C=C(C(=O)O)c1nn(-c2ccccc2)c2c1[C@H](c1ccc(F)cc1)[C@H](NC(=O)c1cccc(C(F)(F)F)c1)C(=O)N2CC (racemic) [Compound I-53, rac-2-((4R,5R)-7-ethyl-4-(4-fluorophenyl)-6-oxo-1-phenyl-5-(3-(trifluoromethyl)benzamido)-4,5,6,7-tetrahydro-1H-pyrazolo[3,4-b]pyridine-3-yl)acrylic acid] | 200 to 1000 |  | > 1000 | +++ (Nanostring Ymax greater than 100.0) | ++ (MS Emax % adduct formation greater than 30.0 and less than or equal to 80.0) | 100 to 1000 | 1000 to 3000 |
| C=C(CN1CCOCC1)C(=O)NCc1nn(-c2ccccc2)c2c1[C@@H](c1ccc(F)cc1)[C@H](NC(=O)c1cccc(C(F)(F)F)c1)C(=O)N2CC (racemic) [Compound I-58] | ≤ 200 | ≤ 200 | > 1000 | + (Nanostring Ymax greater than or equal to 0.0 and less than or equal to 50.0) | + (MS Emax % adduct formation greater than or equal to 0.0 and less than or equal to 30.0) | ≤ 100 |  |
| C/C=C/C(=O)Nc1nn(-c2ccccc2)c2c1[C@H](c1ccc(F)cc1)[C@H](NC(=O)c1cccc(C(F)(F)F)c1)C(=O)N2CC (racemic) [Compound I-62] | 200 to 1000 | ≤ 200 | > 1000 | + (Nanostring Ymax greater than or equal to 0.0 and less than or equal to 50.0) | + (MS Emax % adduct formation greater than or equal to 0.0 and less than or equal to 30.0) | 100 to 1000 |  |
| CCN1C(=O)[C@@H](NC(=O)c2cccc(C(F)(F)F)c2)[C@@H](c2ccc(F)cc2)c2c(NC(=O)C3=CCCC3)nn(-c3ccccc3)c21 (racemic) [Compound I-65] | 200 to 1000 | ≤ 200 | > 1000 | ++ (Nanostring Ymax greater than 50.0 and less than or equal to 100.0) | + (MS Emax % adduct formation greater than or equal to 0.0 and less than or equal to 30.0) | ≤ 100 |  |
| C=C(CN1CCOCC1)C(=O)Nc1nn(-c2ccccc2)c2c1[C@H](c1ccc(F)cc1)[C@H](NC(=O)c1cccc(C(F)(F)F)c1)C(=O)N2CC (racemic) [Compound I-75] | ≤ 200 | ≤ 200 |  | +++ (Nanostring Ymax greater than 100.0) | +++ (MS Emax % adduct formation greater than 80.0 and less than or equal to 100.0) | ≤ 100 |  |
| CCN1C(=O)[C@@H](NC(=O)c2cccc(C(F)(F)F)c2)[C@H](c2ccc(F)cc2)c2c(CNC(=O)C3=C(C(=O)OC)CC3)nn(-c3ccccc3)c21 (racemic) [Compound I-97] | 200 to 1000 | ≤ 200 | 100 to 1000 | ++ (Nanostring Ymax greater than 50.0 and less than or equal to 100.0) | + (MS Emax % adduct formation greater than or equal to 0.0 and less than or equal to 30.0) | ≤ 100 |  |
| C=C(CC(=O)OC)C(=O)NCc1nn(-c2ccccc2)c2c1[C@H](c1ccc(F)cc1)[C@H](NC(=O)c1cccc(C(F)(F)F)c1)C(=O)N2CC (racemic) [Compound I-103] | 200 to 1000 |  | 100 to 1000 | + (Nanostring Ymax greater than or equal to 0.0 and less than or equal to 50.0) | + (MS Emax % adduct formation greater than or equal to 0.0 and less than or equal to 30.0) | > 1000 | 200 to 1000 |
| CCN1C(=O)[C@@H](NC(=O)c2cccc(C(F)(F)F)c2)[C@@H](c2ccc(F)cc2)c2c(CN(C)C(=O)/C=C/C(=O)OC)nn(-c3ccccc3)c21 (racemic) [Compound I-107, methyl (˜{E})-4-[[(4˜{R},5˜{S})-7-ethyl-4-(4-fluorophenyl)-6-oxo-1-phenyl-5-[[3-(trifluoromethyl)benzoyl]amino]-4,5-dihydropyrazolo[3,4-b]pyridine-3-yl]methyl-methyl-amino]-4-oxo-but-2-enoate] | ≤ 200 | ≤ 200 | ≤ 100 | +++ (Nanostring Ymax greater than 100.0) | +++ (MS Emax % adduct formation greater than 80.0 and less than or equal to 100.0) | ≤ 100 |  |
| CCN1C(=O)[C@@H](NC(=O)c2cccc(C(F)(F)F)c2)[C@@H](c2ccc(F)cc2)c2c(CN3CC=CS3(=O)=O)nn(-c3ccccc3)c21 (racemic) [Compound I-110] | 200 to 1000 |  | > 1000 | + (Nanostring Ymax greater than or equal to 0.0 and less than or equal to 50.0) | + (MS Emax % adduct formation greater than or equal to 0.0 and less than or equal to 30.0) | 100 to 1000 | 200 to 1000 |
| C=CC(=O)Nc1nn(-c2ccccc2)c2c1[C@H](c1ccc(F)cc1)[C@H](NC(=O)c1cccc(C(F)(F)F)c1)C(=O)N2CC (racemic) [Compound I-122] | ≤ 200 | ≤ 200 | > 1000 | ++ (Nanostring Ymax greater than 50.0 and less than or equal to 100.0) | ++ (MS Emax % adduct formation greater than 30.0 and less than or equal to 80.0) | 100 to 1000 |  |
